The values below come from PubChem BioAssay AID1259407 (Chemical Carcinogenesis Research Information System (CCRIS), 2018).

The source made the active and inactive calls. The rule behind the calls is not given here.

The data set relates to CCRIS mutagenicity, Ames/micronucleus/aberration tests. Briefly: CCRIS mutagenicity studies. Particulars: Method: STANDARD PLATE.
[1] abbreviates: Test System: AMES SALMONELLA TYPHIMURIUM, Strain/Indicator: TA100, Metabolic Activation: NONE.
Setting [2] is: Test System: AMES SALMONELLA TYPHIMURIUM, Strain/Indicator: TA100, Metabolic Activation: RAT, LIVER, S-9, AROCLOR 1254.

Consider `Oc1cccc2cc3cccc(O)c3c(O)c12`, for which the mutagenic call by setting is: under setting [1], “inactive; negative”; under setting [2], “inactive; negative”; (Test System: AMES SALMONELLA TYPHIMURIUM, Strain/Indicator: TA1535, Metabolic Activation: NONE) “inactive; negative”; (Test System: AMES SALMONELLA TYPHIMURIUM, Strain/Indicator: TA1535, Metabolic Activation: RAT, LIVER, S-9, AROCLOR 1254) “inactive; negative”; (Test System: E. COLI, Strain/Indicator: WP2 UVRA, Metabolic Activation: HAMSTER, LIVER, S-9, AROCLOR 1254) “inactive; negative”; (Test System: E. COLI, Strain/Indicator: WP2 UVRA, Metabolic Activation: HAMSTER, LIVER, S-9) “inactive; negative”. The mutagenic call by setting is: (Test System: E. COLI, Strain/Indicator: WP2 UVRA, Metabolic Activation: MOUSE, LIVER, S-9, AROCLOR 1254) “inactive; negative”; (Test System: E. COLI, Strain/Indicator: WP2 UVRA, Metabolic Activation: MOUSE, LIVER, S-9) “inactive; negative”; (Test System: E. COLI, Strain/Indicator: WP2 UVRA, Metabolic Activation: NONE) “inactive; negative”; (Test System: E. COLI, Strain/Indicator: WP2 UVRA, Metabolic Activation: RAT, LIVER, S-9, AROCLOR 1254) “inactive; negative”; (Test System: E. COLI, Strain/Indicator: WP2 UVRA, Metabolic Activation: RAT, LIVER, S-9) “inactive; negative”.

Regarding `N#Cc1ccc(C(=O)ON(OCc2ccccc2)C(=O)c2ccccc2)cc1`, the mutagenic call under setting [1] is “active; positive” and the mutagenic call (Test System: AMES SALMONELLA TYPHIMURIUM, Strain/Indicator: TA100, Metabolic Activation: RAT, S-9, AROCLOR) was “active; positive”.

Regarding `OC1C=C2c3cc4ccccc4cc3-c3cccc(c32)C1O` (centres undefined), the mutagenic call under setting [2] was “active; positive”.
